# The source made the active and inactive calls. No cut-off for these calls is given here.
# Key:
# [1] = system: Mycobacterium tuberculosis; assay: Antitubercular activity against Mycobacterium tuberculosis mc2 6230 assessed as inhibition of bacterial growth incubated for 7 days; assay type: functional; conditions: mc2 6230, 168 h, time 7 day
# [2] = Binding affinity to Mycobacterium tuberculosis PknB
# Salmonella = assay: Antibacterial activity against Salmonella at 10 uM incubated for 16 hrs by microtiter reader analysis; assay type: functional, organism-based
# Vero = assay: Cytotoxicity against African green monkey Vero cells assessed as reduction in cell viability measured after 72 hrs by CCK8 assay; assay type: cell-based; conditions: Chlorocebus sabaeus
# Escherichia coli = assay: Antibacterial activity against Escherichia coli at 10 uM incubated for 16 hrs by microtiter reader analysis; assay type: functional, organism-based
SMILES,MIC [1] [µM],further results
COCCNc1ncc2c(C)c(-c3ccccc3Cl)c(=O)n(C34CC5CC(CC(C5)C3)C4)c2n1,> 512,
Cc1cc(Nc2ncc3c(C)c(-c4ccc(Cl)cc4)c(=O)n(C45CC6CC(CC(C6)C4)C5)c3n2)ccc1N1CCC(N(C)C)CC1,> 512,
Cc1c(-c2ccccc2Cl)c(=O)n(C23CC4CC(CC(C4)C2)C3)c2nc(N3CCN(CCO)CC3)ncc12,64,
CCCCNc1ncc2c(C)c(-c3ccccc3Cl)c(=O)n(C34CC5CC(CC(C5)C3)C4)c2n1,512,
COc1cc(Nc2ncc3c(C)c(-c4ccccc4Cl)c(=O)n(C45CC6CC(CC(C6)C4)C5)c3n2)ccc1N1CCN(C)CC1,8,Kd [2]: 0.75 µM
Cc1cc(Nc2ncc3c(C)c(-c4ccccc4Cl)c(=O)n(C45CC6CC(CC(C6)C4)C5)c3n2)ccc1N1CCN(CCO)CC1,32,
Cc1cc(Nc2ncc3c(C)c(-c4ccccc4Cl)c(=O)n(C45CC6CC(CC(C6)C4)C5)c3n2)ccc1N1CCC(C)CC1,> 512,
Cc1c(-c2ccccc2Cl)c(=O)n(C23CC4CC(CC(C4)C2)C3)c2nc(NCCO)ncc12,> 512,
Cc1cc(Nc2ncc3c(C)c(-c4ccccc4Cl)c(=O)n(C45CC6CC(CC(C6)C4)C5)c3n2)ccc1N1CCC(N(C)C)CC1,4,Activity (Salmonella): inactive; IC50 (Vero): 2.9 µM; Activity (Escherichia coli): inactive
Cc1cc(Nc2ncc3c(C)c(-c4ccccc4Cl)c(=O)n(C45CC6CC(CC(C6)C4)C5)c3n2)ccc1N1CCN(C)CC1,8,Activity (Salmonella): inactive; IC50 (Vero): 4.8 µM; Activity (Escherichia coli): inactive
Cc1c(-c2ccccc2Cl)c(=O)n(C23CC4CC(CC(C4)C2)C3)c2nc(Nc3ccc(N4CCN(C)CC4)cc3)ncc12,512,
CCOc1cc(Nc2ncc3c(C)c(-c4ccccc4Cl)c(=O)n(C45CC6CC(CC(C6)C4)C5)c3n2)ccc1N1CCN(C)CC1,8,Activity (Salmonella): inactive; IC50 (Vero): 4.4 µM; Activity (Escherichia coli): inactive
Cc1c(-c2ccccc2Cl)c(=O)n(C23CC4CC(CC(C4)C2)C3)c2nc(N3CCC(N4CCOCC4)CC3)ncc12,> 512,
Cc1cc(Nc2ncc3c(C)c(-c4ccccc4F)c(=O)n(C45CC6CC(CC(C6)C4)C5)c3n2)ccc1N1CCC(N(C)C)CC1,32,
Cc1ccccc1-c1c(C)c2cnc(Nc3ccc(N4CCC(N(C)C)CC4)c(C)c3)nc2n(C23CC4CC(CC(C4)C2)C3)c1=O,8,
Cc1c(-c2ccccc2Cl)c(=O)n(C23CC4CC(CC(C4)C2)C3)c2nc(N3CCC(C)CC3)ncc12,> 512,
Cc1c(-c2ccccc2Cl)c(=O)n(C23CC4CC(CC(C4)C2)C3)c2nc(N(C)CCO)ncc12,> 512,
Cc1c(-c2ccccc2Cl)c(=O)n(C23CC4CC(CC(C4)C2)C3)c2nc(NC3CC3)ncc12,265,
COc1ccccc1-c1c(C)c2cnc(Nc3ccc(N4CCC(N(C)C)CC4)c(C)c3)nc2n(C23CC4CC(CC(C4)C2)C3)c1=O,16,

SMILES,MIC [1] [µM],further results
COc1nc2ccc(Br)cc2cc1[C@@H](c1ccccc1)[C@@](O)(CCN(C)C)c1cccc2ccccc12 [BEDAQUILINE],0.02,
Cc1cc(Nc2ncc3c(C)c(-c4cccc(Cl)c4)c(=O)n(C45CC6CC(CC(C6)C4)C5)c3n2)ccc1N1CCC(N(C)C)CC1,> 512,
Cc1cc(Nc2ncc3c(C)c(-c4ccccc4Cl)c(=O)n(C4CCCC4)c3n2)ccc1N1CCC(N(C)C)CC1,32,
Cc1c(-c2ccccc2Cl)c(=O)n(C23CC4CC(CC(C4)C2)C3)c2nc(NC3CCCC3)ncc12,265,
Cc1cc(Nc2ncc3c(C)c(-c4ccccc4C#N)c(=O)n(C45CC6CC(CC(C6)C4)C5)c3n2)ccc1N1CCC(N(C)C)CC1,16,
Cc1c(-c2ccccc2Cl)c(=O)n(C23CC4CC(CC(C4)C2)C3)c2nc(NC3CCCCC3)ncc12,512,
Cc1c(-c2ccccc2Cl)c(=O)n(C23CC4CC(CC(C4)C2)C3)c2nc(Nc3ccc(N4CCN(C)CC4)c(OC(C)C)c3)ncc12,8,Activity (Salmonella): inactive; IC50 (Vero): 4.6 µM; Activity (Escherichia coli): inactive
Cc1c(-c2ccccc2Cl)c(=O)n(C23CC4CC(CC(C4)C2)C3)c2nc(N3CCC(O)CC3)ncc12,> 512,
NNC(=O)c1ccncc1 [ISONIAZID],0.2,
Cc1c(-c2ccccc2Cl)c(=O)n(C23CC4CC(CC(C4)C2)C3)c2nc(NC(C)C)ncc12,256,
Cc1c(-c2ccccc2Cl)c(=O)n(C23CC4CC(CC(C4)C2)C3)c2nc(N3CC(OC(C)C)C3)ncc12,> 512,
Cc1c(-c2ccccc2Cl)c(=O)n(C23CC4CC(CC(C4)C2)C3)c2nc(NC[C@H]3CCCO3)ncc12,> 512,
Cc1cc(Nc2ncc3c(C)c(-c4ccccc4)c(=O)n(C45CC6CC(CC(C6)C4)C5)c3n2)ccc1N1CCC(N(C)C)CC1,16,
CCNc1ncc2c(C)c(-c3ccccc3Cl)c(=O)n(C34CC5CC(CC(C5)C3)C4)c2n1,256,
Cc1cc(Nc2ncc3c(C)c(-c4ccccc4Cl)c(=O)n(C4CCCCC4)c3n2)ccc1N1CCC(N(C)C)CC1,32,
CCC(C)Nc1ncc2c(C)c(-c3ccccc3Cl)c(=O)n(C34CC5CC(CC(C5)C3)C4)c2n1 (stereo not given),512,
Cc1c(-c2ccccc2Cl)c(=O)n(C23CC4CC(CC(C4)C2)C3)c2nc(N3CCN(C)CC3)ncc12,> 512,
Cc1c(-c2ccccc2Cl)c(=O)n(C23CC4CC(CC(C4)C2)C3)c2nc(N3CCC(N(C)C)CC3)ncc12,16,

# Reference: ChEMBL document CHEMBL5055654, “Discovery of 5-methylpyrimidopyridone analogues as selective antimycobacterial agents” (Bioorg Med Chem, 2021)
